Data on eight compounds can be found in patent publication US20090048269A1 (AstraZeneca AB, priority 2007, published 2009).

In test [1] the target is T1, human ALK5 (Homo sapiens, UniProt P36897).
T1 sequence (P36897 162-503): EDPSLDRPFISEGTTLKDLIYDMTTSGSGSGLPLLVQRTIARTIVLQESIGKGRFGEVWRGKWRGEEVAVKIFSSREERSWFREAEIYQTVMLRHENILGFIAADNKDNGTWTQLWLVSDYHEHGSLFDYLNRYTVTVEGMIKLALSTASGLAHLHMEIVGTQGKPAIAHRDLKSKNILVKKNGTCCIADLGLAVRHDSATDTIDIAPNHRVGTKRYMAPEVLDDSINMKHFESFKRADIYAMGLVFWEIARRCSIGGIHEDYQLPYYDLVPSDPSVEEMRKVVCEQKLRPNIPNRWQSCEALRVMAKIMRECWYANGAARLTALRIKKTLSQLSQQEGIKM
Nature of the test: ALK5 Enzyme Assay 1. The arrangement: 6His tagged ALK5 protein (amino acids 162-503) expressed in insect cells; 6His; made in house; host or cells: insect cells. In kind it is biochemical.

In test [2] the test system is TGFβ1 mediated smad2 nuclear translocation. Put plainly: Cell Assay (Smad2 Redistribution Assay, MDA-MB-468 Smad2-EGFP cells). As to conditions: Homo sapiens, read-out: CAA: cell assay activity. In kind it is cell-based. The text has this:
Ligand mediated translocation of R-Smads (Smads 1,2,3,5,8) is a well-documented phenomenon in a variety of cell types. (Derynck, R. and Zhang, Y., 2003, Nature, 425, 577-584, Shi, Y. and Massague, J., 2003, Cell, 113, 685-700). Specifically TGFβ1 and TGFβ3 cause phosphorylation and nuclear translocation of Smad2 and Smad3 transcription factors. Thus compound inhibition of TGFβsignalling can be estimated by measuring cellular distribution of Smad2 or 3 under activated TGFβpathway. The Smad2 Redistribution™ Assay (Fisher BioImage ApS) was used to assess in vitro cellular activity of compounds of interest. The breast adenocarcinoma MDA-MB-468 parent cell line was used to create a recombinant cell line, MDA-MB-468 PS213 I GScl4C8 containing Smad2 fused to the C-terminus of enhanced green fluorescent protein (Smad2-EGFP). This enables monitoring of cellular distribution of Smad2 using high throughput fluorescence microscopy.
This assay measures the ability of compounds to inhibit TGFβ1 mediated smad2 nuclear translocation. Compounds dose ranges were created by diluting in 100% DMSO and then further into assay media (RPMI1640, 1% FCS, 10 mM HEPES pH 7.4). Cells were plated in 96 well Packard View plates at 8×10^3 per well in 100 μL RPMI1640, 10% FCS, 0.5 mg/mL geneticin and grown for 48 hrs. […] Plates were then read on an ArrayScan Vti instrument to determine nuclear to cytoplasmic staining. […]

For test [3], the target named is T1, human ALK5. Put plainly: ALK5 Enzyme Assay 2 (fluorescence polarisation probe displacement). In kind it is binding. Further details: 6His tagged human ALK5 (residues162-503) was grown and purified from insect cells; 6His; made in house; host or cells: insect cells. The gist of the method:
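Recombinant ALK5 (3 μg/mL) incubated with test compound in 50 mM HEPES pH7.4, 10 mM MgCl2, 1 mM DTT, 0.01% CHAPS. Displacement of a fluorescent quinazoline-based ALK5 probe (50 nM final) in presence of 1 μM ATP read by fluorescence polarisation.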
Background: In fluorescence polarisation assays a small probe gives low polarisation when free and higher when bound to something large.

A short description of test [4]: IT6 (abbreviation not defined).
Setting [5] is: read-out: EAA: activity (μM) using Enzyme Assay 1.
Where [6] appears, read: read-out: EAA2: activity (μM) using Enzyme Assay 2.

With `COc1cc(Nc2cc(Oc3ccc(C)nc3-c3cccc(C)c3)ccn2)cc(OC)c1OC` [Example 57, 4-[6-Methyl-2-(3-methylphenyl)pyridin-3-yl]oxy-N-(3,4,5-trimethoxyphenyl)-pyridin-2-amine], the IC50 at human ALK5 [1] (setting [5]) turned out to be 0.0154 µM; in test [2], 90.4 nM.
As for `Cc1cc(Oc2ccnc(Nc3cccc(Cl)c3)c2)c(-c2ccccn2)nc1C` [Example 12, N-(3-Chlorophenyl)-4-(5,6-dimethyl-2-pyridin-2-yl-pyridin-3-yl)-oxy-pyridin-2-amine], the figures for the IC50 on human ALK5 [1] (setting [5]) and at human ALK5 [3] (setting [6]) were 0.0073 µM and 0.0418 µM, respectively.
In the case of `Cc1cc(Oc2ccnc(Nc3cc(F)ccc3F)c2)c(-c2ccccn2)nc1C` [Example 31, N-(2,5-Difluorophenyl)-4-(5,6-dimethyl-2-pyridin-2-yl-pyridin-3-yl)-oxy-pyridin-2-amine], the IC50 on human ALK5 [1] (setting [5]) was found to be 0.0274 µM; on human ALK5 [3] (setting [6]), 0.0312 µM.
Consider `Cc1cc(Oc2ccnc(Nc3ccc(Cl)cc3)c2)c(-c2ccccn2)nc1C` [Example 30, N-(4-Chlorophenyl)-4-(5,6-dimethyl-2-pyridin-2-yl-pyridin-3-yl)oxy-pyridin-2-amine], for which the IC50 on human ALK5 [1] (setting [5]) was 1.67 µM; at human ALK5 [3] (setting [6]), 0.894 µM.
Take `CNC(=O)c1nc(C)ccc1Oc1ccnc(Nc2ccccc2)c1` [Example 97, 3-(2-Anilinopyridin-4-yl)oxy-N,6-dimethylpyridine-2-carboxamide]: in test [4], the IT6 came out at 0.9458. Besides, the IC50 at human ALK5 [3] (setting [6]) is 0.348 µM.
As for `CCc1ccc(Oc2ccnc(Nc3ccc(S(N)(=O)=O)cc3)c2)c(-c2ccccn2)n1` [Example 44, 4-{[4-(6-Ethyl-2-pyridin-2-yl-pyridin-3-yl)oxypyridin-2-yl]-amino}benzene-sulfonamide], the IC50 at human ALK5 [1] (setting [5]) worked out at 0.0161 µM; at human ALK5 [3] (setting [6]) it was 0.0165 µM.
As to `COc1cc(Nc2cc(Oc3ccc(C)nc3C)ccn2)cc(OC)c1OC` [Example 7, 4-(2,6-Dimethylpyridin-3-yl)oxy-N-(3,4,5-trimethoxyphenyl)-pyridin-2-amine], the IC50 on human ALK5 [1] (EAA: activity (μM) using Enzyme Assay 1) worked out at 0.0206 µM; at human ALK5 [3] it was 0.0349 µM.
In the case of `CC(=O)Nc1cc(Nc2cc(Oc3cc(C)c(C)nc3-c3ccccn3)ccn2)ccc1C` [Example 16, N-(5-{[4-(5,6-Dimethyl-2-pyridin-2-yl-pyridin-3-yl)oxypyridin-2-yl]amino}-2-methyl-phenyl)acetamide], the IC50 came out at 0.0128 µM at human ALK5 [1] (setting [5]) and 0.00602 µM on human ALK5 [3] (setting [6]).
